Experimental data taken from ChEMBL document CHEMBL5678810.

Assays:
[1] = molecular target: Angiopoietin-1 receptor (Homo sapiens) (UniProt Q02763); experiment: Inhibition of T7 bacteriophage fused human TIE2 at 10 uM by KINOMEscan analysis relative to control
[2] = molecular target: Non-receptor tyrosine-protein kinase TYK2 (Homo sapiens) (UniProt P29597); experiment: Inhibition of T7 bacteriophage fused human TYK2 JH2 pseudokinase domain at 10 uM by KINOMEscan analysis relative to control
[3] = molecular target: T1, Mitogen-activated protein kinase kinase kinase 7 (Homo sapiens) (UniProt O43318); experiment: Inhibition of T7 bacteriophage fused human TAK1 at 10 uM by KINOMEscan analysis relative to control
T1 sequence (whole entry): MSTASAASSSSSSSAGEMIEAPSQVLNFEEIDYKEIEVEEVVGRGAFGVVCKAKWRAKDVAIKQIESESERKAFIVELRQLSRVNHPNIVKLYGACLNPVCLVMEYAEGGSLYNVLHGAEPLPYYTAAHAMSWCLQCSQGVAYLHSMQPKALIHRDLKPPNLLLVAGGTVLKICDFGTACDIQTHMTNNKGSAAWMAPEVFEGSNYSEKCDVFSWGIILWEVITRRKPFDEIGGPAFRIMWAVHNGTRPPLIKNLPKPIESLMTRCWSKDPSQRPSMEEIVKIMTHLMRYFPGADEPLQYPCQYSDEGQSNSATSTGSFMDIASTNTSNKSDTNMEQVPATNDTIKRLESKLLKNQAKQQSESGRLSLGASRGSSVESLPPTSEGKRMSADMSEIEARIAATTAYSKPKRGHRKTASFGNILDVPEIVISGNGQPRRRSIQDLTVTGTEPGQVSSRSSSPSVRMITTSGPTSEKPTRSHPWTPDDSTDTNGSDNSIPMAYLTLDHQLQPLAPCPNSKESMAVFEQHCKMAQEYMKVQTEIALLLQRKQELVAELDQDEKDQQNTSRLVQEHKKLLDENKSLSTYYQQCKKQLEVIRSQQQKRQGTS

[4] = molecular target: TGF-beta receptor type-2 (Homo sapiens) (UniProt P37173); experiment: Inhibition of T7 bacteriophage fused human TGFBR2 at 10 uM by KINOMEscan analysis relative to control
Sequence of TGF-beta receptor type-2 (Homo sapiens) (P37173 whole entry, the tested form may be a part): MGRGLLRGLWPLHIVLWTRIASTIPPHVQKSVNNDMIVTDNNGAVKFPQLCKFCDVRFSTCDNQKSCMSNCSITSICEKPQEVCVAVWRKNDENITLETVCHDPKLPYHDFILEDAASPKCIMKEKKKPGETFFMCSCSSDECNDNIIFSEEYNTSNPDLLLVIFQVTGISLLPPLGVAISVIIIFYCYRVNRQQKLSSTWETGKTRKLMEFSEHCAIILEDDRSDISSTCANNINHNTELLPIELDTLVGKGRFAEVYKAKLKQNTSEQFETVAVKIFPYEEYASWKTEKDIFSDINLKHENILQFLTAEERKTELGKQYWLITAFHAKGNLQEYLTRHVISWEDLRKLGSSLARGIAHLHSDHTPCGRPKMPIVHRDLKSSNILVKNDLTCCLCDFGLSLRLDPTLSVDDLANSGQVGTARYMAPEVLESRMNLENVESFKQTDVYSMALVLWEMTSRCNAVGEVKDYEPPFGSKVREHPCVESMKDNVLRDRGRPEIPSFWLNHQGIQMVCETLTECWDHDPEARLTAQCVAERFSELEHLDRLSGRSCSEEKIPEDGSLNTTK

[5] = molecular target: SRSF protein kinase 1 (Homo sapiens) (UniProt Q96SB4); experiment: Inhibition of T7 bacteriophage fused human SRPK1 at 10 uM by KINOMEscan analysis relative to control
[6] = molecular target: Serine/threonine-protein kinase 32B (Homo sapiens) (UniProt Q9NY57); experiment: Inhibition of T7 bacteriophage fused human YANK2 at 10 uM by KINOMEscan analysis relative to control
Sequence of Serine/threonine-protein kinase 32B (Homo sapiens) (Q9NY57 whole entry, the tested form may be a part): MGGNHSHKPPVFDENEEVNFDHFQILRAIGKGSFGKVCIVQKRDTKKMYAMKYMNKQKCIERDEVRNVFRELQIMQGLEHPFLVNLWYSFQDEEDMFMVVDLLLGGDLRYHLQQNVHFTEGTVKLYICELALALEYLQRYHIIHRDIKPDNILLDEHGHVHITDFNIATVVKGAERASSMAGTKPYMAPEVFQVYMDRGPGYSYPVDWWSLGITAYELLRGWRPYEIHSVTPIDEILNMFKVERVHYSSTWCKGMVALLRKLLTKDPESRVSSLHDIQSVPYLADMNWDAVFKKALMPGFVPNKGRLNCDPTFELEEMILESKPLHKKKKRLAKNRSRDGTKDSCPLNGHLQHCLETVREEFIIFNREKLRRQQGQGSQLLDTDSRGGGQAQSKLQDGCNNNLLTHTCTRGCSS

[7] = molecular target: STE20-like serine/threonine-protein kinase (Homo sapiens) (UniProt Q9H2G2); experiment: Inhibition of T7 bacteriophage fused human SLK at 10 uM by KINOMEscan analysis relative to control
Sequence of STE20-like serine/threonine-protein kinase (Homo sapiens) (Q9H2G2 whole entry, looked up, the tested form may be a part): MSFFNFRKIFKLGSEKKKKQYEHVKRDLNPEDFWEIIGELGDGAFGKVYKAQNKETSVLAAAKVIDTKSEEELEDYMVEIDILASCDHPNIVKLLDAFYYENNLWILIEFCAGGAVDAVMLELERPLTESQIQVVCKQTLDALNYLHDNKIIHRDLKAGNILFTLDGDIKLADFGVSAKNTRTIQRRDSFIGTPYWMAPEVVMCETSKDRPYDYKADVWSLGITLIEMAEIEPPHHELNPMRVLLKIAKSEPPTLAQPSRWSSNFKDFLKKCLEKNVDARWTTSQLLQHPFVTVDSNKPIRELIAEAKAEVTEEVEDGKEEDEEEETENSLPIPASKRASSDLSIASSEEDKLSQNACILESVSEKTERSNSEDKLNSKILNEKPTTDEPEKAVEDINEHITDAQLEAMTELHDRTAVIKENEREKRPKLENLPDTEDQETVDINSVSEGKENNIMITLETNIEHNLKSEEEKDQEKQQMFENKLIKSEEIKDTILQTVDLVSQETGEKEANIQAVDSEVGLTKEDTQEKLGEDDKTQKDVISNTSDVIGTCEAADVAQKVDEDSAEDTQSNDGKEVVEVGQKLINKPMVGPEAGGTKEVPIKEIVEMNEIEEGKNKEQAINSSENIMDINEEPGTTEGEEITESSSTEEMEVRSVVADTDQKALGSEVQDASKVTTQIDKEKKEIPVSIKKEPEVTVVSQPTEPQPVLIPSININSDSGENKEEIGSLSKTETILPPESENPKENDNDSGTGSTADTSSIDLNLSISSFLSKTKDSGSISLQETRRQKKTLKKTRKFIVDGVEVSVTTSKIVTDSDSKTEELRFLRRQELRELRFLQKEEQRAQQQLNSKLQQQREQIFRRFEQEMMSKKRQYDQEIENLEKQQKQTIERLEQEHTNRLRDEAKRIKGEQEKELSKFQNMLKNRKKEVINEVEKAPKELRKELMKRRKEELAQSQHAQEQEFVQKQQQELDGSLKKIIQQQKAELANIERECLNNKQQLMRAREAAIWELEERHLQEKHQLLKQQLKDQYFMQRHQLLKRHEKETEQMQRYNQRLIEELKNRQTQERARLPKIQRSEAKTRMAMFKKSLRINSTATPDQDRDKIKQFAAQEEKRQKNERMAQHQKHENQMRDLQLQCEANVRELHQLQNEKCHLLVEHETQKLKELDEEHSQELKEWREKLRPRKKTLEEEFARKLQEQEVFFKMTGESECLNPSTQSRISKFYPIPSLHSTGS

[8] = molecular target: Vascular endothelial growth factor receptor 2 (Homo sapiens) (UniProt P35968); experiment: Inhibition of T7 bacteriophage fused human VEGFR2 at 10 uM by KINOMEscan analysis relative to control
[9] = molecular target: T2, Serine/threonine-protein kinase ULK3 (Homo sapiens) (UniProt Q6PHR2); experiment: Inhibition of T7 bacteriophage fused human ULK3 at 10 uM by KINOMEscan analysis relative to control
T2 sequence (whole entry): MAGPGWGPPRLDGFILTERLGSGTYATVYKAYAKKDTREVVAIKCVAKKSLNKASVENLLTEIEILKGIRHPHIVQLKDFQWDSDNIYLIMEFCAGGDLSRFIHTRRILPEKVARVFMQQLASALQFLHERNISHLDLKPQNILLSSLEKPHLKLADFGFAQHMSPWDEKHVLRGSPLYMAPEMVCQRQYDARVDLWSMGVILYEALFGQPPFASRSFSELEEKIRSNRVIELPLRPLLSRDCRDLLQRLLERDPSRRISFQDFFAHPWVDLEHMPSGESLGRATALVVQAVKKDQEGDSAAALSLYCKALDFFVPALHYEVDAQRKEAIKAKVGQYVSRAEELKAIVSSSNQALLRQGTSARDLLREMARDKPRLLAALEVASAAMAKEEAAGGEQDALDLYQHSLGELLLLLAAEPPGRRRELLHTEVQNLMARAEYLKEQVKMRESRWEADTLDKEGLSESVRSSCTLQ

[10] = molecular target: T3, Serine/threonine-protein kinase TAO1 (Homo sapiens) (UniProt Q7L7X3); experiment: Inhibition of T7 bacteriophage fused human TAOK1 at 10 uM by KINOMEscan analysis relative to control
T3 sequence (whole entry): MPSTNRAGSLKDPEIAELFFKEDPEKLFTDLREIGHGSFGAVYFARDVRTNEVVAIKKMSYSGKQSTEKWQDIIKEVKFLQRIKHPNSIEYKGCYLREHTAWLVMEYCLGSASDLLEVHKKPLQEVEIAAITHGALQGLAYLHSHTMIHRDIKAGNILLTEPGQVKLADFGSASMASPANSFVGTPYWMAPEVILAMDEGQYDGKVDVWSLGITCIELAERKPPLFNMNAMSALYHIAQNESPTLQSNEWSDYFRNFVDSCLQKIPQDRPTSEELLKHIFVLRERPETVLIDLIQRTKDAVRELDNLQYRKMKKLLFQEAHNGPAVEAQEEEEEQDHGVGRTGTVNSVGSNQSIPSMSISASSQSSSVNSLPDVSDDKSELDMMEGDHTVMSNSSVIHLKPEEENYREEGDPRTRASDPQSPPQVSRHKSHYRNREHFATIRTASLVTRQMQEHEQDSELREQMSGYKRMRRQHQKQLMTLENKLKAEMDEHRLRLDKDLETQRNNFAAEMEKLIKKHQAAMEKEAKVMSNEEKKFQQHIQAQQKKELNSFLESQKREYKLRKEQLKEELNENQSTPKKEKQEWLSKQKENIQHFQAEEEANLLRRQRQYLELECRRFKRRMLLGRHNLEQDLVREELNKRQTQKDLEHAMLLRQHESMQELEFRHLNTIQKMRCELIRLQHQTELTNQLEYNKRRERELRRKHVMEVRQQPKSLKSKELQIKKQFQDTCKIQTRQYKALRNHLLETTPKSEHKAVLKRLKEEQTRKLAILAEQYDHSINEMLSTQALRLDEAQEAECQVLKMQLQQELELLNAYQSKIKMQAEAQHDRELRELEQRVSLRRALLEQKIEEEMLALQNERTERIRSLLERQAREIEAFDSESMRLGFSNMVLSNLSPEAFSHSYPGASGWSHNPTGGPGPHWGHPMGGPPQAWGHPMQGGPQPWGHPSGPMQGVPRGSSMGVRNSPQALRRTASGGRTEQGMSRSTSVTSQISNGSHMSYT

[11] = molecular target: Serine/threonine-protein kinase 4 (Homo sapiens) (UniProt Q13043); experiment: Inhibition of T7 bacteriophage fused human MST1 at 10 uM by KINOMEscan analysis relative to control; values are per cent of control
Sequence of Serine/threonine-protein kinase 4 (Homo sapiens) (Q13043 whole entry, looked up, the tested form may be a part): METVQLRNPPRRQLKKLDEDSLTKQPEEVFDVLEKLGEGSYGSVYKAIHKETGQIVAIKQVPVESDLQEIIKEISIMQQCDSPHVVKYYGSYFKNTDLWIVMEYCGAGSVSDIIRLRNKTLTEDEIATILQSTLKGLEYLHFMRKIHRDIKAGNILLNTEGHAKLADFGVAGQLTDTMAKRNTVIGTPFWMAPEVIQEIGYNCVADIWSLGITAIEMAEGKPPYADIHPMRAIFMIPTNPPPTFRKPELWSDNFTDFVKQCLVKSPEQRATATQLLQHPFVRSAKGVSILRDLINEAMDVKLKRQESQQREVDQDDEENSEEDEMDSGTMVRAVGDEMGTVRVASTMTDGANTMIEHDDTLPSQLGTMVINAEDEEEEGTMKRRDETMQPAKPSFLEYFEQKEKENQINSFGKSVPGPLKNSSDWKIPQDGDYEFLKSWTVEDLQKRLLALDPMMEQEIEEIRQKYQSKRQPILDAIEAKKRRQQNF

Sequence of Non-receptor tyrosine-protein kinase TYK2 (Homo sapiens) (P29597 whole entry, the tested form may be a part): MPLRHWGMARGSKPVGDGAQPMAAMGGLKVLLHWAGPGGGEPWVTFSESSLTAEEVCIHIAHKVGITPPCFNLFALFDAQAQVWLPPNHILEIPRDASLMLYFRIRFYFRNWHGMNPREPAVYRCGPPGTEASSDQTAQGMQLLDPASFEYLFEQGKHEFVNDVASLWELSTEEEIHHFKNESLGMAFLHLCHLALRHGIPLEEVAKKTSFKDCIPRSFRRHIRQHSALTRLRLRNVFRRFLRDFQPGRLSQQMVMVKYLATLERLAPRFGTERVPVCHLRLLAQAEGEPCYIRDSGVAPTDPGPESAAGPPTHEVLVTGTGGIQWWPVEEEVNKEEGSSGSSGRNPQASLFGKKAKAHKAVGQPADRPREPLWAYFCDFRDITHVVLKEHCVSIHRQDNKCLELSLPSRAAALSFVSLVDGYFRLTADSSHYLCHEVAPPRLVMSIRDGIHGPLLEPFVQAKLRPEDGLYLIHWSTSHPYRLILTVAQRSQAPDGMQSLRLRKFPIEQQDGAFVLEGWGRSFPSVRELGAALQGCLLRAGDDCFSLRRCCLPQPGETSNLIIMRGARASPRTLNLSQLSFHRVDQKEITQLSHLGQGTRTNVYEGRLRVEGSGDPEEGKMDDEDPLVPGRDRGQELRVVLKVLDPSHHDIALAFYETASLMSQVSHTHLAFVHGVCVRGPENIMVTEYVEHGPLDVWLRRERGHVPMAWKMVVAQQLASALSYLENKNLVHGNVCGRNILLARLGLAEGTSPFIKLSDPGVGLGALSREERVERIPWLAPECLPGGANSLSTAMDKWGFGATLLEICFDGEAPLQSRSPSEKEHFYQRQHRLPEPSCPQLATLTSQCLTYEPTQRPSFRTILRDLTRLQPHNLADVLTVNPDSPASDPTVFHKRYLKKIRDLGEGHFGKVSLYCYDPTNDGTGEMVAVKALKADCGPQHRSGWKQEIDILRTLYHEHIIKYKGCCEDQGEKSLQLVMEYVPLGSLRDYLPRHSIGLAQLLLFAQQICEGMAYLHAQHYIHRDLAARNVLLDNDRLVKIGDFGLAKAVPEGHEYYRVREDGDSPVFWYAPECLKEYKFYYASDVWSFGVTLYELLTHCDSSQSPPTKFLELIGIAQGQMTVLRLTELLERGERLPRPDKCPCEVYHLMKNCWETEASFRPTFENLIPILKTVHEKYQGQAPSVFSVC
Sequence of Angiopoietin-1 receptor (Homo sapiens) (Q02763 whole entry, the tested form may be a part): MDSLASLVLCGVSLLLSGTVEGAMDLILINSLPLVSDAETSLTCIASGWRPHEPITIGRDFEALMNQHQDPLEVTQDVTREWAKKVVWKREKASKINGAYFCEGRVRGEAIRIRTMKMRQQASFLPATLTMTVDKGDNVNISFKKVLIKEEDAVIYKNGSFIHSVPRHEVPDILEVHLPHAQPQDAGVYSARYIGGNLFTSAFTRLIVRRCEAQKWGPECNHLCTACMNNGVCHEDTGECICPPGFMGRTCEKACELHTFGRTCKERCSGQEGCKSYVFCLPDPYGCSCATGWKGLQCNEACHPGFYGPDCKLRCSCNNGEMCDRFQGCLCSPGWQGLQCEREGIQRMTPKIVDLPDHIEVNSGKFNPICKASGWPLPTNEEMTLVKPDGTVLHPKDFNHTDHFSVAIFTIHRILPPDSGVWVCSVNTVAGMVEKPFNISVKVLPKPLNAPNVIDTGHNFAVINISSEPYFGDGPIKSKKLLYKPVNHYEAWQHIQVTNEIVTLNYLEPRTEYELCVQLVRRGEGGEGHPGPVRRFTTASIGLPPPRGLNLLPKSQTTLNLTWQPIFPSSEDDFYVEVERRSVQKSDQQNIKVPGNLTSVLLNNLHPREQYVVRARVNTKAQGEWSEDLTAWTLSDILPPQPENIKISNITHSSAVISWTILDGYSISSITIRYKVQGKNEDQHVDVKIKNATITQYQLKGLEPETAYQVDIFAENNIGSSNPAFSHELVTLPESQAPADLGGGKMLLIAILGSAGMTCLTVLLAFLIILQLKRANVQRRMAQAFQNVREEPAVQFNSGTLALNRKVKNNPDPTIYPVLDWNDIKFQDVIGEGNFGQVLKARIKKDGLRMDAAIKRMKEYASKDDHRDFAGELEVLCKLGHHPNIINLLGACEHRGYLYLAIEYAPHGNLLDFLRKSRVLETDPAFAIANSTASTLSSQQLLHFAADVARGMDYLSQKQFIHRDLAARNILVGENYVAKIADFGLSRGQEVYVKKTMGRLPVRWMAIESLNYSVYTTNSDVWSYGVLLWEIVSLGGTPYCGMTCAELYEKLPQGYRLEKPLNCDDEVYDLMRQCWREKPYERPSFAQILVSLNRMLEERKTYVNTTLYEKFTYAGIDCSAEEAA

| Compound | inhibition [1] | inhibition [2] | inhibition [3] | inhibition [4] | inhibition [5] | inhibition [6] | inhibition [7] | inhibition [8] | inhibition [9] | inhibition [10] | residual activity [11] |
| --- | --- | --- | --- | --- | --- | --- | --- | --- | --- | --- | --- |
| COc1cc(N2CCC(N3CCN(C)CC3)CC2)ccc1Nc1ncc2c(n1)N(C)c1ccccc1C(=O)N2C | 100% | 100% | 98% | 100% | 94% | 100% | 100% | 84% | 100% | 28% | 100% |
| CCOc1cc(C(=O)N2CCC(N3CCN(C)CC3)CC2)ccc1Nc1ncc2c(n1)N(C1CCCC1)c1ccccc1C(=O)N2C | 100% | 100% | 100% | 100% | 100% | 100% | 100% | 100% | 100% | 79% | 100% |
| COc1cc(C(=O)N2CCC(N3CCN(C)CC3)CC2)ccc1Nc1ncc2c(n1)N(C1CCCC1)c1ccccc1C(=O)N2C | 100% | 100% | 100% | 100% |  | 100% | 100% | 100% | 100% | 51% | 100% |
